The source of these data is patent publication US8394763B2, “Cyclic undecapeptides and derivatives as multiple sclerosis therapies” (Oregon Health & Science University, priority 2007, dated 2013).

The target in one assay is CypA (Homo sapiens, UniProt P62937). The note with it: see U.S. Pat. No. 6,927,208 and WO 2006/038088; cited from earlier work.
Assay [1] relates to EAE in C57BL/6 (B6) female mice. The assay can be described thus: Clinical course of EAE, treatment begun prior to disease onset (day 10). The assay is classed as in vivo, C57BL/6 (B6) mice. The note with it: for mean total EAE score: vehicle control 99.
Procedure: EAE was induced in C57BL/6 (B6) female mice by immunization with 200 μg of MOG 35-55 peptide in complete Freund's adjuvant containing 400 μg of Mycobacterium tuberculosis per mouse by subcutaneous injection. Pertussis toxin was administered intraperitoneally at day 0 (25 ng per mouse) and day 2 (66 ng per mouse) after immunization. […] Mice were examined for signs of EAE daily, blinded to treatment status. EAE was scored by using a 9 point scale (0, no paralysis; 1, limp tail with minimal hind limb weakness; 2, mild hind limb weakness; 3, moderate hind limb weakness; 4, moderately severe hind limb weakness; 5, severe hind limb weakness; 6, complete hind limb paralysis; 7, hind limb paralysis with mild forelimb weakness; 8, hind limb paralysis with moderate forelimb weakness; and 9, hind limb paralysis with severe forelimb weakness).
The test system of assay [2] is Mice with induced EAE. The assay can be described thus: White matter tissue damage in thoracic spinal cord of EAE mice (toluidine blue). The assay is classed as in vivo. The note with it: vs vehicle. The method, then: Mice with induced EAE were deeply anesthetized with isoflurane, heparinized, and perfused with 5% gluteraldehyde, and spinal cords were dissected as described in Masliah et al., Am. J. Pathol. 142:871-882, 1993. Tissue samples were post-fixed with 1% osmium. Semithin sections (0.5 μm) were stained with toluidine blue and photographed at 25× magnification. The percentage of the spinal cord showing damage was determined in the ventrolateral and dorsal thoracic cord. Photomontages (final magnification 100×) of the entire spinal cord and areas containing damaged fibers were measured using a SummaSketch 111 (Summagraphics, Fairfield, Conn.) digitizing tablet and BIOQUANT Classic 95 software (R & M Biometrics, Nashville, Tenn.). Measurements were taken of the total area (damaged and nondamaged) and the cumulative percentage area of lesions was calculated.

Assay [3] deals with Splenocytes or lymphocytes. Put plainly: Proliferation of splenocytes or lymphocytes from treated immunized mice in response to MOG 35-55 peptide. The note with it: mice treated with 20 mg/kg/day, compared with vehicle. The assay is classed as in vivo, B6 mice.
For assay [4], the system named is EAE in B6 mice. The assay can be described thus: Repair of injured axons: NF-P immunostaining at day 40, treatment from day 15. The assay is classed as in vivo. The text has this: B6 mice were immunized with MOG 35-55 peptide as described in Example 2. […] The two treatment groups were perfused on day 40 post-immunization and sections of their spinal cords were immunostained for NF-P.

The subject of assay [5] is EAE in B6 mice. The assay can be described thus: Reversal of paralysis in EAE, treatment begun day 15 after onset. The note with it: 20 mg/kg daily from day 15. The assay is classed as in vivo. From the text:
EAE was induced in B6 mice as described in Example 2. Mice developed signs of EAE 10-12 days following immunization with MOG 35-55 peptide. […] Mice were scored daily for EAE, blinded to treatment status.

The test system of assay [6] is Mice with induced EAE. Put plainly: Phosphorylated neurofilament (NF-P) immunostaining of spinal cord of EAE mice, dose groups. The assay is classed as in vivo. To be noted: vehicle 24%. The method, then:
Mice with induced EAE were perfused with 4% paraformaldehyde and 1- to 2-mm lengths of spinal cord were processed for sectioning as described in Masliah et al. Spinal cord sections were blocked and stained with anti-phosphorylated NF, SMI312 (Sternberger Monoclonals, Lutherville, Md.). Following incubation in goat anti-mouse secondary antibody and incubation in mouse peroxidase-antiperoxidase, immunoreactivity was visualized with 0.05% diaminobenzidine tetrahydrochloride/0.01% hydrogen peroxide, examined by light microscopy and photographed and analyzed as described for assessing white matter tissue damage. Statistical significance was determined by using one-way ANOVA followed by Newman-Keuls multiple comparisons tests (WINKS 4.62 professional edition; Texasoft, Dallas, Tex.); significance was defined as p<0.05.

Another assay has as its system lymph node cells. The assay can be described thus: Proliferation of lymph node cells to MOG 35-55 peptide, [3H]thymidine incorporation. The assay is classed as cell-based, C57BL/6 (B6) mice. To be noted: 25 μg/ml MOG 35-55 peptide; equimolar concentrations of both compounds; vs MOG 35-55 peptide alone. Background: Incorporation of labelled thymidine or its analogues reports DNA synthesis.

Another assay deals with EAE in C57BL/6 mice. Put plainly: CD4 and CD11b immunostaining of spinal cord of EAE mice. The assay is classed as in vivo. To be noted: 20 mg/kg/day s.c. from day 15, day 34 to 40. The text has this:
EAE was induced in C57BL/6 mice by immunization with […] as described in Example 2. […] Mice received therapy by daily subcutaneous injection. Mice were euthanized at day 34 to 40 post-immunization by perfusion with 4% paraformaldehyde and spinal cords were removed for immunohistochemical staining and quantitative analysis. Spinal cord sections were stained with anti-CD4 (lymphocyte) or anti-CD11b (monocyte/macrophage lineage) antibodies and quantified following image capture on a laser scanning confocal microscope.

The mark [7] stands for this setting: 20 mg/kg, vs vehicle treated mice.

Bounds are passed on as bounds.

Sequence of CypA (P62937 whole entry, species assumed): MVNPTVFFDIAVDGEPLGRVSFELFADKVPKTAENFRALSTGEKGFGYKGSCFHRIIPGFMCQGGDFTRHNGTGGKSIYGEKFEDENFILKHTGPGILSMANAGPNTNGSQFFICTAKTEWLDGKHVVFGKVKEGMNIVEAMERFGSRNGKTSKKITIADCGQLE

Take [EtPhe(4-CH2PO(OMe)2)]^4-CsA: the “apparent Ki for CypA activity compared with CsA” value on CypA is on record as “less than the Ki of CsA”.

In the case of “Cyclo[L-alanyl-D-alanyl-N-methyl-L-leucyl-N-methyl-L-leucyl-N-methyl-L-valyl-(2S,3R,4R,6E)-3-hydroxy-4-methyl-2-methylamino-6-octenoyl-(2S)-2-aminobutanoyl-N-methyl-D-alanyl-N-ethyl-L-valyl-L-valyl-N-methyl-L-leucyl] [[D-MeAla]^3-[EtVal]^4-CsA]”, the “mean total EAE score” value in [1] (1 mg/kg/day from day 10) is 53; in assay [1] (5 mg/kg/day from day 10) it was 25; in assay [1] (20 mg/kg/day from day 10), 12; with EAE in B6 mice [5] (vehicle 116, p=0.0006) it was 75. For the same substance, in assay [1] (setting [7]), the onset of disease entry is recorded as “significantly delayed”. The “severity of peak disease” value in [1] (setting [7]) is on record as “reduced”. For the same substance, in [1] (all doses (1, 5, 20 mg/kg), in contrast to vehicle), the “recovery over the course of the experiment” value is “completely recovered”. In addition, the “reduction of tissue damage, dorsal thoracic cord” value with Mice with induced EAE [2] (1 mg/kg/day) turned out to be 50%; with Mice with induced EAE [2] (5 mg/kg/day), 69%; in the assay on Mice with induced EAE [2] (20 mg/kg/day), 81%. In addition, the “reduction of tissue damage, ventrolateral thoracic cord” value stood at 40% in the assay on Mice with induced EAE [2] (1 mg/kg/day), 76% in the assay with Mice with induced EAE [2] (5 mg/kg/day) and 86% in the assay on Mice with induced EAE [2] (20 mg/kg/day). The “proliferation of splenocytes or lymphocytes in response to MOG 35-55 peptide” value in assay [3] is “no differences in proliferation”. The “reduced NF-P staining, share of dorsal spinal cord” value in the assay on EAE in B6 mice [4] (20 mg/kg daily from day 15, read at day 40, day 15 untreated 9%, vehicle 4.7%) worked out at 1.7%. For the same substance, the “reduced NF-P staining, share of ventrolateral spinal cord” value in the assay with EAE in B6 mice [4] (20 mg/kg daily from day 15, read at day 40, day 15 untreated 14%, vehicle 20%) is given as 7%. For the same substance, the “improvement in expression of NF-P within axons” value in the assay with EAE in B6 mice [4] (20 mg/kg daily, day 40 vs day 15) is not below 50%. Besides, the “clinical course of paralysis” value in the assay on EAE in B6 mice [5] is reported as “progressive improvement, eventually returning to nearly normal”. In addition, the “mean area of loss of NF-P staining, lateral/ventral thoracic spinal cord” value with Mice with induced EAE [6] (1 mg/kg) is listed as 14.5%; with Mice with induced EAE [6] (5 mg/kg) it was 3%; with Mice with induced EAE [6] (20 mg/kg), 1.5%. Further, the “proliferative capacity of lymph node cells, MOG 35-55 peptide stimulated” value in the assay on lymph node cells is on record as “did not significantly alter”. In addition, the “percentage area stained by anti-CD4, spinal cord” value in the assay on EAE in C57BL/6 mice (no treatment 0.86%, vehicle 0.74%, not significant) turned out to be 0.61%. In addition, in the assay with EAE in C57BL/6 mice (no treatment 6.64%, vehicle 5.83%, p=0.05 vs vehicle), the “CD11b cells, percentage of white matter” value is given as 3.94%.
